From ChEMBL document CHEMBL1909046, “DrugMatrix in vitro pharmacology data”

Columns and labels:
[1] = DRUGMATRIX: Calcium Channel Type L, Benzothiazepine radioligand binding (ligand: [3H] Diltiazem); type: cell membranes, Rattus norvegicus, Wistar, Brain, Membrane; conditions: Not Active = under 50% inhibition at 10 µM
[2] = target: T1, Receptor-type tyrosine-protein phosphatase C (Homo sapiens, UniProt P08575); set-up: species or system Escherichia coli;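 note: inhibition of CD45 enzyme activity measured using DiFMUP as substrate; in other assays of this panel Not Active means under 50% inhibition at 10 µM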
T1 sequence (P08575 whole entry): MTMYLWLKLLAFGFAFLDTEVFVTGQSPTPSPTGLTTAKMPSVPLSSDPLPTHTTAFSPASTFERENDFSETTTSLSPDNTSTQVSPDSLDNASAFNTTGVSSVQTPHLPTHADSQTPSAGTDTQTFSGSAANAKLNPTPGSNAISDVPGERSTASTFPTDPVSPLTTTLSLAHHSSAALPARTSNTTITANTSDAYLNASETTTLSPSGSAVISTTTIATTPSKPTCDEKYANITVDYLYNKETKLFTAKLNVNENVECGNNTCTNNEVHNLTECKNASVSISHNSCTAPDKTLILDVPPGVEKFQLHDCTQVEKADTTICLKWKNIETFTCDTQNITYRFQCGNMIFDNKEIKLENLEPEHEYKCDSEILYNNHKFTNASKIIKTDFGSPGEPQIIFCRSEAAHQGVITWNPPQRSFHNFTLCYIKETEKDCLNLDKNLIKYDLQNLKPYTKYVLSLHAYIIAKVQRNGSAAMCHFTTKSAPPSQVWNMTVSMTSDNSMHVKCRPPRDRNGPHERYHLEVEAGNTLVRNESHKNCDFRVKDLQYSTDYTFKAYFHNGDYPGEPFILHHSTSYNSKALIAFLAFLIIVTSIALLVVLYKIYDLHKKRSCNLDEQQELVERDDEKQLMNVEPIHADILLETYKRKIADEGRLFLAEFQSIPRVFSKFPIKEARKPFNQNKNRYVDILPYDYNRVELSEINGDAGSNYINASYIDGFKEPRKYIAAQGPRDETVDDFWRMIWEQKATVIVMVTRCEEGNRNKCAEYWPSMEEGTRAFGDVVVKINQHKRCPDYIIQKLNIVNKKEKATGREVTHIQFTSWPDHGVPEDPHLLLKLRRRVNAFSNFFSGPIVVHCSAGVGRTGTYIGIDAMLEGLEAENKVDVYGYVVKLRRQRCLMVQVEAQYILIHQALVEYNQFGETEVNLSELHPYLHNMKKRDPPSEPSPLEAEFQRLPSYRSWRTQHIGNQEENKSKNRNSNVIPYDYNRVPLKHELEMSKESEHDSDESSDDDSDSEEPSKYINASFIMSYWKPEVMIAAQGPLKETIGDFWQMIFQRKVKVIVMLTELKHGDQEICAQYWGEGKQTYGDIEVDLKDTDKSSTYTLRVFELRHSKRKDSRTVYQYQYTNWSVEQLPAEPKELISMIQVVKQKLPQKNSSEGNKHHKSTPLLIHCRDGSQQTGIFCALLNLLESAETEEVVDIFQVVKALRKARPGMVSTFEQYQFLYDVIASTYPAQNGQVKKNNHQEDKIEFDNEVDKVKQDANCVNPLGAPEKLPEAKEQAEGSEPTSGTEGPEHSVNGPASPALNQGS

Calcitonin receptor = target: T2, Calcitonin receptor (Homo sapiens, UniProt P30988); type: cell membranes, Membrane; conditions: t47d; note: in other assays of this panel Not Active means under 50% inhibition at 10 µM
T2 sequence (P30988 whole entry): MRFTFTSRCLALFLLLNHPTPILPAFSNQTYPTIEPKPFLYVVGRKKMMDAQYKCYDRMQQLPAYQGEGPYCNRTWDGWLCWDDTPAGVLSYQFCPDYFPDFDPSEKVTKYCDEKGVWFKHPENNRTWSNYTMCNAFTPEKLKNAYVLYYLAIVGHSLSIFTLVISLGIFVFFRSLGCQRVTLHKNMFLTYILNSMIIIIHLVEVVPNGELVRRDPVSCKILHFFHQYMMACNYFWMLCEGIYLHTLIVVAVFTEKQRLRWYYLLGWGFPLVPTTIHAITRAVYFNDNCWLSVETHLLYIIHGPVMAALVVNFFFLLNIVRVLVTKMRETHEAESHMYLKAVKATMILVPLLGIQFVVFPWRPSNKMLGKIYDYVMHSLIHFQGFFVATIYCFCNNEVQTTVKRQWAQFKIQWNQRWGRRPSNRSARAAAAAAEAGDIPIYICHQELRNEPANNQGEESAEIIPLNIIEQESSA

[3] = DRUGMATRIX: Purinergic P2X radioligand binding (ligand: [3H] alpha, beta-Methylene-ATP); type: cell membranes, Oryctolagus cuniculus, New Zealand albino, Urinary bladder, Membrane; conditions: Not Active = under 50% inhibition at 10 µM
Cytochrome P450 2C9 = Cytochrome P450 2C9 (Homo sapiens, UniProt P11712); conditions: bti-tn-5b1-4; note: in other assays of this panel Not Active means under 50% inhibition at 10 µM
[4] = DRUGMATRIX: ATPase, Na+/K+ enzyme inhibition (substrate: ATP); type: tissue-based, Sus scrofa, Heart; conditions: Not Active = under 50% inhibition at 10 µM
Leukotriene C4 synthase = target: T3, Leukotriene C4 synthase (Cavia porcellus, UniProt A6XA80); type: tissue-based, Lung;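 note: enzyme inhibition assay of leukotriene C4 synthase, using LTA4 as the substrate; in other assays of this panel Not Active means under 50% inhibition at 10 µM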
T3 sequence (A6XA80 whole entry): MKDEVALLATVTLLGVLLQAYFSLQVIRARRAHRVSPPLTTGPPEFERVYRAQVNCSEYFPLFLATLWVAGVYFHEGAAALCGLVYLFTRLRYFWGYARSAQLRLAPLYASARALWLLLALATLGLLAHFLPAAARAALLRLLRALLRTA

[5] = target: C-C chemokine receptor type 5 (Homo sapiens, UniProt P51681); type: cell membranes, Membrane; conditions: hek293; note: in other assays of this panel Not Active means under 50% inhibition at 10 µM
C-C chemokine receptor type 5, sequence (P51681 whole entry): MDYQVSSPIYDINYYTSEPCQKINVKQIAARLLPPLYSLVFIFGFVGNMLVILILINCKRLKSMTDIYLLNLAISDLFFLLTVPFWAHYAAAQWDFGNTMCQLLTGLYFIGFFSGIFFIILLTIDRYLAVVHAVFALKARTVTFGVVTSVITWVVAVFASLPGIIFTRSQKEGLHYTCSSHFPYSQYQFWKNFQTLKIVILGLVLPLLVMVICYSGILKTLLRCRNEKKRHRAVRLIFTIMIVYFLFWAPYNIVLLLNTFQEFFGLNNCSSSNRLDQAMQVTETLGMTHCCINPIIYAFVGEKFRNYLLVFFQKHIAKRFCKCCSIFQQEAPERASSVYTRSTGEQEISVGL

Cytochrome P450 2C9, sequence (P11712 whole entry): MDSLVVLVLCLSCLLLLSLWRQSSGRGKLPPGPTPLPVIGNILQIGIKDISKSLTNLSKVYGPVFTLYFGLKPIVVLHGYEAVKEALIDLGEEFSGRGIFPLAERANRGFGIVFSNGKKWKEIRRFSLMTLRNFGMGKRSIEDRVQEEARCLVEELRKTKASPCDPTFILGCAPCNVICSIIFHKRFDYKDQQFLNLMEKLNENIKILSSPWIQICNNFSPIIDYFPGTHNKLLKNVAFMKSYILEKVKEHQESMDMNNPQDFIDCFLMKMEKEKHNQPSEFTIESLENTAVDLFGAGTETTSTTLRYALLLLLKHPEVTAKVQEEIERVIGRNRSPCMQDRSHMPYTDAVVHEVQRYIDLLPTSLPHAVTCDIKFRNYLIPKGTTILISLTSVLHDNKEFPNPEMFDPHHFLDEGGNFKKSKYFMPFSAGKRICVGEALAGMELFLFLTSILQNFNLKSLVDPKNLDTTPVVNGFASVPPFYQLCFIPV

Row | Compound | IC50 [1] | Ki [1] | IC50 [2] | IC50 (Calcitonin receptor) | IC50 [3] | Ki [3] | IC50 (Cytochrome P450 2C9) | Ki (Cytochrome P450 2C9) | IC50 [4] | Ki [4] | IC50 (Leukotriene C4 synthase) | IC50 [5] | Ki [2] | Ki (Calcitonin receptor) | Ki (Leukotriene C4 synthase) | Ki [5] | IC50 ([1]; read-out: IC50) [µM] | Ki ([1]; read-out: Ki) [µM]
1 | NCCCCCC(=O)O [AMINOCAPROIC ACID] | Not Active | Not Active | Not Active | Not Active | Not Active | Not Active | Not Active | Not Active | Not Active | Not Active | Not Active | Not Active |  |  |  |  |  | 
2 | C=C(C)C1(O)OC(=O)C=C1OC (stereo not given) [PENICILLIC ACID] | Not Active | Not Active | Not Active | Not Active | Not Active | Not Active | Not Active | Not Active | Not Active | Not Active | Not Active | Not Active |  |  |  |  |  | 
3 | CC1(C)O[C@@H]2C[C@H]3[C@@H]4CCC5=CC(=O)CC[C@]5(C)[C@@]4(F)[C@@H](O)C[C@]3(C)[C@]2(C(=O)CCl)O1 [HALCINONIDE] | Not Active | Not Active | Not Active | Not Active | Not Active | Not Active | Not Active | Not Active | Not Active | Not Active | Not Active | Not Active |  |  |  |  |  | 
4 | LIPOPOLYSACCHARIDE E. COLI O55:B5 | Not Active | Not Active | Not Active | Not Active | Not Active | Not Active | Not Active | Not Active | Not Active | Not Active | Not Active | Not Active | Not Active | Not Active | Not Active | Not Active |  | 
5 | COc1cc2c3cc1Oc1cc(ccc1O)C[C@@H]1c4c(cc(OC)c(O)c4Oc4ccc(cc4)C[C@@H]3N(C)CC2)CC[N+]1(C)C.[Cl-] | Not Active | Not Active | Not Active | Not Active | Not Active | Not Active | Not Active | Not Active | Not Active | Not Active | Not Active | Not Active |  |  |  |  |  | 
6 | CC(NC(C)(C)C)C(=O)c1cccc(Cl)c1 (stereo not given) [BUPROPION] | Not Active | Not Active | Not Active | Not Active | Not Active | Not Active | Not Active | Not Active | Not Active | Not Active | Not Active | Not Active |  |  |  |  |  | 
7 | CADMIUM ACETATE | Not Active | Not Active | Not Active | Not Active | Not Active | Not Active | Not Active | Not Active | Not Active | Not Active | Not Active | Not Active | Not Active | Not Active | Not Active | Not Active |  | 
8 | CNCCCN1c2ccccc2CCc2ccccc21 [DESIPRAMINE] | Not Active | Not Active | Not Active | Not Active | Not Active | Not Active | Not Active | Not Active | Not Active | Not Active | Not Active | Not Active |  |  |  |  |  | 
9 | C[C@]12CCC(=O)C=C1CC[C@@H]1[C@@H]2CC[C@@]2(C)[C@H]1CC[C@]2(C)O [METHYLTESTOSTERONE] | Not Active | Not Active | Not Active | Not Active | Not Active | Not Active | Not Active | Not Active | Not Active | Not Active | Not Active | Not Active |  |  |  |  |  | 
10 | CC(=O)O[C@@]12CO[C@@H]1C[C@H](O)[C@@]1(C)C(=O)[C@H](O)C3=C(C)[C@@H](OC(=O)[C@H](O)[C@@H](NC(=O)OC(C)(C)C)c4ccccc4)C[C@@](O)([C@@H](OC(=O)c4ccccc4)[C@H]21)C3(C)C.O.O.O [DOCETAXEL] | Not Active | Not Active | Not Active | Not Active | Not Active | Not Active | Not Active | Not Active | Not Active | Not Active | Not Active | Not Active |  |  |  |  |  | 
11 | Nc1ncn([C@@H]2O[C@H](CO)[C@@H](O)[C@H]2O)c(=O)n1 [AZACITIDINE] | Not Active | Not Active | Not Active | Not Active | Not Active | Not Active | Not Active | Not Active | Not Active | Not Active | Not Active | Not Active |  |  |  |  |  | 
12 | C[C@](N)(Cc1ccc(O)c(O)c1)C(=O)O [METHYLDOPA] | Not Active | Not Active | Not Active | Not Active | Not Active | Not Active | Not Active | Not Active | Not Active | Not Active | Not Active | Not Active |  |  |  |  |  | 
13 | O=C(CCCN1CC=C(n2c(=O)[nH]c3ccccc32)CC1)c1ccc(F)cc1 [DROPERIDOL] | Not Active | Not Active | Not Active | Not Active | Not Active | Not Active | Not Active | Not Active | Not Active | Not Active | Not Active | Not Active |  |  |  |  |  | 
14 | CC1CC(OC(=O)C(O)c2ccccc2)CC(C)(C)C1 (stereo not given) [CYCLANDELATE] | Not Active | Not Active | Not Active | Not Active | Not Active | Not Active | Not Active | Not Active | Not Active | Not Active | Not Active | Not Active |  |  |  |  |  | 
15 | CCCN1C[C@H](CSC)C[C@@H]2c3cccc4[nH]cc(c34)C[C@H]21 [PERGOLIDE] |  |  | Not Active | Not Active | Not Active | Not Active | Not Active | Not Active | Not Active | Not Active | Not Active | Not Active |  |  |  |  | 3.3 | 2.93
16 | c1ccc2c(c1)c1cccc3ccc4cccc2c4c31 [BENZO[E]PYRENE] | Not Active | Not Active | Not Active | Not Active | Not Active | Not Active | Not Active | Not Active | Not Active | Not Active | Not Active | Not Active |  |  |  |  |  | 
